Reference: patent US10562912B2 (C&C Research Laboratories, priority 2013, dated 2020)

Assays:
Assay type in all cases: cell-based
NCI-H508 = assay: Cell growth inhibition assay, cell line NCI-H508; conditions: Homo sapiens, NCI-H508 cells
C-33A = assay: Cell growth inhibition assay, cell line C-33A; conditions: Homo sapiens, C-33A cells
MDA-MB-231 = assay: Cell growth inhibition assay, breast cancer cell line MDA-MB-231; conditions: Homo sapiens; MDA-MB-231 breast cancer cell line, 5,000 cells/well
HCC1500 = assay: Cell growth inhibition assay, cell line HCC1500; conditions: HCC1500 cells
BT-549 = assay: Cell growth inhibition assay, breast cancer cell line BT-549; conditions: Homo sapiens, BT-549 breast cancer cell line
Method: (§1) The inhibitory effects of the compounds of the present invention against the growth of cancer cells were evaluated as shown below. The cancer cell lines including stomach cancer cell line (AGS), breast cancer cell lines (MDA-MB-231, MDA-MB-468, and BT-549), prostate cancer cell lines (LNCaP and DU-145), colon cancer cell line (HCT116), ovarian cancer cell line (SW626), liver cancer cell line (Hep3B), kidney cancer cell line (ACHN), lung cancer cell line (NCI-H23) and blood cancer cell lines (HEL92.1.7 and U266) were cultured under the protocol provided by each supplier. A medium supplemented with 10 ng/mL of IL-6 was used for LNCaP, a prostate cancer cell line, when treated with a drug. Each type of cells to be used in experiments were sub-cultured in a 96-well plate by counting the exact number of cells using Tali™ Image-based Cytometer (Life Technologies). In a 96-well plate, AGS, HCT116, and DU-145 were employed with 3,000 cells/well; NCI-H23, SW626, Hep3B, ACHN, BT-549, MDA-MB-231, HEL92.1.7, and U266 were employed with 5,000 cells/well; and LNCaP and MDA-MB-468 were employed with 10,000 cells/well. The cells were treated with the compounds listed in Examples which were diluted in various concentrations. Upon completion of the compounds treatment, AGS, HCT116, SW626, DU145, NCI-H23, Hep3B, ACHN, BT-549, LNCaP, HEL92.1.7, and U266 cells were cultured at 37° C. under 5% CO2 for from 72 to 96 hours, and MDA-MB-231 and MDA-MB-468 cells were cultured at 37° C. in air for from 72 to 96 hours. Subsequently, the cells were observed under microscope and drug precipitation and particular findings were investigated and recorded. And then, the 96-well plate was placed at room temperature for 30 minutes, added with 20 μL/well of CellTiter-Glo solution (Cat No. G7573, Promega) and shaken for 10 minutes, followed by being subjected to the measurement using PHERAstar™ microplate reader (BMG LABTECH) according to the supplier's general luminometer protocol. Wells where only culture liquid added without cell plating were used as a negative control, whereas wells where culture liquid containing 0.1% DMSO instead of the compounds listed in Examples were used as a positive control.

HEL92.1.7 = assay: Cell growth inhibition assay, blood cancer cell line HEL92.1.7; conditions: Homo sapiens, HEL 92.1.7, HEL92.1.7 blood cancer cell line
In short: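 Cells were seeded at 3,000/well (HCT116, DU-145) or 5,000/well (SW626 and the others) and exposed to serial compound dilutions for 72 to 96 h at 37 °C under 5% CO2. Viability was read as CellTiter-Glo luminescence against 0.1% DMSO and cell-free wells.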

HCT116 = assay: Cell growth inhibition assay, colon cancer cell line HCT116; conditions: Homo sapiens, HCT-116 colon cancer cell line
Method: as §1, with “Wells where only culture liquid added without cell plating were used as a negative control, whereas wells where culture liquid containing 0.1% DMSO instead of the compounds listed in Examples were used as a positive control.” left out

NCI-H661 = assay: Cell growth inhibition assay, cell line NCI-H661; conditions: Homo sapiens, NCI-H661 cells
Hep3B = assay: Cell growth inhibition assay, liver cancer cell line Hep3B; conditions: Homo sapiens
Method: as §1

Raji = assay: Cell growth inhibition assay, cell line Raji; conditions: Homo sapiens, Raji cells
SW626 = assay: Cell growth inhibition assay, ovarian cancer cell line SW626; conditions: Homo sapiens
Method: as §1, with “Wells where only culture liquid added without cell plating were used as a negative control, whereas wells where culture liquid containing 0.1% DMSO instead of the compounds listed in Examples were used as a positive control.” left out

MDA-MB-361 = assay: Cell growth inhibition assay, cell line MDA-MB-361; conditions: Homo sapiens, MDA-MB-361 cells
NCI-H1650 = assay: Cell growth inhibition assay, cell line NCI-H1650; conditions: Homo sapiens, NCI-H1650 cells
DU-145 = assay: Cell growth inhibition assay, prostate cancer cell line DU-145; conditions: Homo sapiens, DU-145 prostate cancer cell line
In short: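 Seed DU-145/HCT116 3,000 cells/well, SW626 5,000 cells/well; add compound dilution series; incubate 72–96 h, 37° C., 5% CO2; microscope check for precipitate; CellTiter-Glo, luminescence. Blank = no cells; vehicle = 0.1% DMSO.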

LNCaP = assay: Cell growth inhibition assay, prostate cancer cell line LNCaP (medium with 10 ng/mL IL-6); conditions: Homo sapiens, medium supplemented with 10 ng/mL of IL-6, 10,000 cells/well
SW1417 = assay: Cell growth inhibition assay, cell line SW1417; conditions: Homo sapiens, SW1417 cells
STAT3 = target: T1, STAT3 (Homo sapiens, UniProt P40763); assay: STAT3 reporter gene assay (luciferase), LNCaP stable cell line (pSTAT3-TA-luc), IL-6 stimulation
T1 construct: plasmid pSTAT3-TA-luc), which contains a stably operating STAT3 promoter; endogenous in cells
In short: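 Cytotoxicity was run on a duplicate plate with CellTiter-Glo, while the other plate gave luciferase read-outs from lysed LNCaP pSTAT3-TA-luc reporter cells. Cells were treated with graded compound concentrations plus IL-6 (10 ng/mL final) for 24–48 h in 3% DCC-FBS medium. Unstimulated and stimulated wells served as negative and positive controls.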

IM-9 = assay: Cell growth inhibition assay, cell line IM-9; conditions: Homo sapiens, IM-9 cells
MDA-MB-468 = assay: Cell growth inhibition assay, breast cancer cell line MDA-MB-468; conditions: Homo sapiens, MDA-MB-468 breast cancer cell line
Method: as §1

NCI-H23 = assay: Cell growth inhibition assay, lung cancer cell line NCI-H23; conditions: Homo sapiens
Method: as §1, with “Wells where only culture liquid added without cell plating were used as a negative control, whereas wells where culture liquid containing 0.1% DMSO instead of the compounds listed in Examples were used as a positive control.” left out

ACHN = assay: Cell growth inhibition assay, kidney cancer cell line ACHN; conditions: Homo sapiens
Method: as §1, with “Wells where only culture liquid added without cell plating were used as a negative control, whereas wells where culture liquid containing 0.1% DMSO instead of the compounds listed in Examples were used as a positive control.” left out

T1 sequence (P40763 whole entry): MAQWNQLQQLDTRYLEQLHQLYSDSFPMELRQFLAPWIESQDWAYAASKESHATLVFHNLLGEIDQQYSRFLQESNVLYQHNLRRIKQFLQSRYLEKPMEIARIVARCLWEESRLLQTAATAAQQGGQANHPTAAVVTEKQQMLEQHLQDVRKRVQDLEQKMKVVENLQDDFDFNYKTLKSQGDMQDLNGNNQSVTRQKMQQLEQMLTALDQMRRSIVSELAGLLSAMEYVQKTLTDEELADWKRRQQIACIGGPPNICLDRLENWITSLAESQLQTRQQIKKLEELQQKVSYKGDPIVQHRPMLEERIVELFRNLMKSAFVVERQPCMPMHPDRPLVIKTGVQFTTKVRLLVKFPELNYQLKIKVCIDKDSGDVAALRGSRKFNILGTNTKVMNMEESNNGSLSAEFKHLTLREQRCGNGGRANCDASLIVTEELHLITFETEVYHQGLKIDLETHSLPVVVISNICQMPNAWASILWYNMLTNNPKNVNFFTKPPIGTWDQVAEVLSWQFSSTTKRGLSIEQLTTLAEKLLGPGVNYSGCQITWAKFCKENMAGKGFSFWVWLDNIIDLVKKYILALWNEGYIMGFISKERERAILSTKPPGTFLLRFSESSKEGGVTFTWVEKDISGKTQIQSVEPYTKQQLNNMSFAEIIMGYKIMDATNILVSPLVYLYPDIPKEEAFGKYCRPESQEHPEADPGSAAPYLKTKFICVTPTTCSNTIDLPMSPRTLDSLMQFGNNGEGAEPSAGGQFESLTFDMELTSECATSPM

- IC50 (NCI-H508): 0.22 µM
- IC50 (MDA-MB-231): 0.18 µM
- IC50 (HCC1500): 1.03 µM
- IC50 (BT-549): 1 µM
- IC50 (HEL92.1.7): 1.3 µM
- IC50 (HCT116): 1.5 µM
- IC50 (NCI-H661): 0.09 µM
- IC50 (Hep3B): 2.2 µM
- IC50 (Raji): 0.57 µM
- IC50 (SW626): 0.29 µM
- IC50 (MDA-MB-361): 0.28 µM
- IC50 (NCI-H1650): 0.62 µM
- IC50 (DU-145): 0.37 µM
- IC50 (LNCaP): 0.463 µM
- IC50 (SW1417): 0.35 µM
- IC50 (STAT3): 0.2 µM
- IC50 (MDA-MB-468): 0.14 µM
- IC50 (NCI-H23): 1.7 µM
- IC50 (ACHN): 0.37 µM
Compound: CN(c1ccc2cc(C(=O)Nc3cccc(-c4ccccc4C(F)(F)F)c3)[nH]c2c1)S(C)(=O)=O [Example 346, 6-(N-methylmethylsulfonamido)-N-(2′-(trifluoromethyl)-[1,1′-biphenyl]-3-yl)-1H-indole-2-carboxamide]
- IC50 (C-33A): 0.3 µM
- IC50 (IM-9): 0.51 µM
